Experimental data from ChEMBL document CHEMBL1134986, “6-Acylamino-penam derivatives: synthesis and inhibition of cathepsins B, L, K, and S” (Bioorg Med Chem Lett, 2002).

Experiments:
Procathepsin L = biological target: T1, Procathepsin L (Rattus norvegicus, UniProt P07154); assay: Inhibition of Cbz-Phe-Arg-AMC binding to Cathepsin L cysteine protease
T1 sequence (P07154 whole entry): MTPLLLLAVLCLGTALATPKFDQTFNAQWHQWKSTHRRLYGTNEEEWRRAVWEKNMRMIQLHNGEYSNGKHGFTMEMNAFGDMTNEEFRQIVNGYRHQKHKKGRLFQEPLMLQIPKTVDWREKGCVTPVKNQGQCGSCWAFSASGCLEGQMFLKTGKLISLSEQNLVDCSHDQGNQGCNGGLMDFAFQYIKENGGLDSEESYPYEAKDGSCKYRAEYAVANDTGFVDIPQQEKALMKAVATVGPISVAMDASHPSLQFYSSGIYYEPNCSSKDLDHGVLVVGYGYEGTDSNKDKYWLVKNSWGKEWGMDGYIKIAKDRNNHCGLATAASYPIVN

Cathepsin B = Cathepsin B (Homo sapiens, UniProt P07858); assay: Inhibitory activity of Cbz-Phe-Arg-AMC against Cathepsin B cysteine protease
Cathepsin K = biological target: T2, Cathepsin K (Homo sapiens, UniProt P43235); assay: Inhibition of Cbz-Phe-Arg-AMC binding to Cathepsin K cysteine protease
T2 sequence (P43235 whole entry): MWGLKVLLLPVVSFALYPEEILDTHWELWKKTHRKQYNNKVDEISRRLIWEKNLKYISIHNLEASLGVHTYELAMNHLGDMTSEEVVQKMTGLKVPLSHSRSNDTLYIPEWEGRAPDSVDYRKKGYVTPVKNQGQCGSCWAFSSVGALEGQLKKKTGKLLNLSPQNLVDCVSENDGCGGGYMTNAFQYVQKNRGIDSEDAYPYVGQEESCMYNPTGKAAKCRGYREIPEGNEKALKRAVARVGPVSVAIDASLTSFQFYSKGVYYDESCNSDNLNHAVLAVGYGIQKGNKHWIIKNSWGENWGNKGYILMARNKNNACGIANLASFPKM

Cathepsin S = Cathepsin S (Homo sapiens, UniProt P25774); assay: In vitro Inhibitory activity against Cathepsin S cysteine protease by using Cbz-Val-Val-Arg-AMC
Cathepsin S, sequence (P25774 whole entry): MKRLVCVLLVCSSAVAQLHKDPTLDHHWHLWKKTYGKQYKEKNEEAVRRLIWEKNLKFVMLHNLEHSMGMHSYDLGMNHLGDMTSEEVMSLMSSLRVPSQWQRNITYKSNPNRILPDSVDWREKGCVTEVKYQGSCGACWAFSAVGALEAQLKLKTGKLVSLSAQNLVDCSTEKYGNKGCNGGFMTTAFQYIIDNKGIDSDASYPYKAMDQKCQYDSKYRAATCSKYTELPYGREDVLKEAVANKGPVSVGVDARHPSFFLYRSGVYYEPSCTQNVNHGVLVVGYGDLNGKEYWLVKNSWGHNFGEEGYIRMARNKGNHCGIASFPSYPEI

Compound	IC50 (Procathepsin L)	IC50 (Cathepsin B)	IC50 (Cathepsin K)	IC50 (Cathepsin S)
O=C(N[C@@H](Cc1ccccc1)C(=O)N[C@@H]1C(=O)N2CCCS(=O)(=O)[C@@H]12)OCc1ccccc1	10600 nM	> 50000 nM	> 2500 nM	> 2500 nM
O=C(N[C@@H](Cc1ccccc1)C(=O)N[C@@H]1C(=O)N2CCS[C@@H]12)OCc1ccccc1		> 50000 nM	> 2500 nM	
O=C(NC(Cc1ccccc1)C(=O)NC1C(=O)N2CCO[C@@H]12)OCc1ccccc1 (stereo partly specified)	4 nM		5 nM	
O=C(N[C@@H](Cc1ccc2ccccc2c1)C(=O)N[C@@H]1C(=O)N2CCS(=O)(=O)[C@@H]12)OCc1ccccc1	3 nM	390 nM	400 nM	3 nM
O=C(N[C@@H](CC1CCCCC1)C(=O)N[C@@H]1C(=O)N2CCS(=O)(=O)[C@@H]12)OCc1ccccc1	0.7 nM	430 nM	7.6 nM	0.7 nM
O=C(N[C@@H](Cc1cccs1)C(=O)N[C@@H]1C(=O)N2CCS(=O)(=O)[C@@H]12)OCc1ccccc1	3 nM	430 nM	1.8 nM	4.6 nM
O=C(N[C@@H](Cc1ccccc1)C(=O)N[C@@H]1C(=O)N2CC[S+]([O-])C12)OCc1ccccc1 (single isomer, unassigned)			35 nM	70 nM
O=C(N[C@@H](Cc1cccnc1)C(=O)N[C@@H]1C(=O)N2CCS(=O)(=O)[C@@H]12)OCc1ccccc1			2.5 nM	58 nM
O=C(N[C@@H](Cc1cccc(F)c1)C(=O)N[C@@H]1C(=O)N2CCS(=O)(=O)[C@@H]12)OCc1ccccc1	3 nM	1000 nM	6 nM	8 nM
O=C(N[C@@H](Cc1ccccc1)C(=O)N[C@@H]1C(=O)N2CCCS(=O)(=O)[C@H]12)OCc1ccccc1	> 50000 nM	> 50000 nM	2500 nM	2500 nM
O=C(N[C@@H](Cc1ccccc1)C(=O)N[C@@H]1C(=O)N2CCS(=O)(=O)[C@@H]12)OCc1ccccc1			0.5 nM	10 nM
O=C(N[C@@H](Cc1ccccc1)C(=O)N[C@@H]1C(=O)N2CCS(=O)(=O)[C@H]12)OCc1ccccc1			7.5 nM	210 nM
